Experimental data taken from patent US20260042731A1, “(2,4-DICHLOROPHENOXY)ACETIC ACID ANALOGS” (CORTEVA AGRISCIENCE LLC, priority 2022, published 2026).
Where two headings read alike, the source gives them in different places.

Key:
[1] = tested on: Chenopodium album (CHEAL), common lambsquarters; assay: Postemergence herbicide evaluation, growth of Chenopodium album (CHEAL); assay type: in vivo; conditions: Chenopodium album, post-emergence, read-out: Ave. CHEAL, percent reduction in plant size relative to the untreated control; for pest or weed control at 280 g/ha: 280 g ae/ha; for pest or weed control at 560 g/ha: 560 g ae/ha
[2] = tested on: weeds ABUTH, AMATA, AMBEL, CHEAL, ERICA; assay: Postemergence herbicide evaluation, overall average % weed control (ABUTH, AMATA, AMBEL, CHEAL, ERICA); assay type: in vivo; conditions: post-emergence, read-out: Overall Ave % Weed Control; for pest or weed control at 280 g/ha: 280 g ae/ha; for pest or weed control at 560 g/ha: 560 g ae/ha
[3] = tested on: Ambrosia artemisiifolia (AMBEL), common ragweed; assay: Postemergence herbicide evaluation, growth of Ambrosia artemisiifolia (AMBEL); assay type: in vivo; conditions: Ambrosia artemisiifolia, post-emergence, read-out: AVE. AMBEL, percent reduction in plant size relative to the untreated control; for pest or weed control at 280 g/ha: 280 g ae/ha; for pest or weed control at 560 g/ha: 560 g ae/ha
[4] = tested on: glyphosate resistant Conyza canadensis (L.) (ERICA), horseweed; assay: Postemergence herbicide evaluation, growth of Conyza canadensis (ERICA); assay type: in vivo; conditions: Erigeron canadensis, post-emergence, read-out: Ave. ERICA, percent reduction in plant size relative to the untreated control; for pest or weed control at 280 g/ha: 280 g ae/ha; for pest or weed control at 560 g/ha: 560 g ae/ha
[5] = tested on: Abutilon theophrasti (ABUTH), velvetleaf; assay: Postemergence herbicide evaluation, growth of Abutilon theophrasti (ABUTH); assay type: in vivo; conditions: Abutilon theophrasti, post-emergence, read-out: AVE. ABUTH, percent reduction in plant size relative to the untreated control; for pest or weed control at 280 g/ha: 280 g ae/ha; for pest or weed control at 560 g/ha: 560 g ae/ha
[6] = Volatility of compounds measured by thermogravimetric analysis (TGA); assay type: physicochemical
[7] = tested on: Amaranthus rudis (AMATA), tall water hemp; assay: Postemergence herbicide evaluation, growth of Amaranthus rudis (AMATA); assay type: in vivo; conditions: Amaranthus tuberculatus, post-emergence, read-out: Ave. AMATA, percent reduction in plant size relative to the untreated control; for pest or weed control at 280 g/ha: 280 g ae/ha; for pest or weed control at 560 g/ha: 560 g ae/ha

SMILES	pest or weed control at 280 g/ha ([1]; 168 h, 7 DAA) [%]	pest or weed control at 560 g/ha ([1]; 168 h, 7 DAA) [%]	pest or weed control at 280 g/ha ([1]; 336 h, 14 DAA) [%]	pest or weed control at 560 g/ha ([1]; 336 h, 14 DAA) [%]	pest or weed control at 280 g/ha ([1]; 504 h, 21 DAA) [%]	pest or weed control at 560 g/ha ([1]; 504 h, 21 DAA) [%]	pest or weed control at 280 g/ha ([2]; 168 h, 7 DAA) [%]	pest or weed control at 560 g/ha ([2]; 168 h, 7 DAA) [%]	pest or weed control at 280 g/ha ([2]; 336 h, 14 DAA) [%]	pest or weed control at 560 g/ha ([2]; 336 h, 14 DAA) [%]	pest or weed control at 280 g/ha ([2]; 504 h, 21 DAA) [%]	pest or weed control at 560 g/ha ([2]; 504 h, 21 DAA) [%]	pest or weed control at 280 g/ha ([3]; 168 h, 7 DAA) [%]	pest or weed control at 560 g/ha ([3]; 168 h, 7 DAA) [%]	pest or weed control at 280 g/ha ([3]; 336 h, 14 DAA) [%]	pest or weed control at 560 g/ha ([3]; 336 h, 14 DAA) [%]	pest or weed control at 280 g/ha ([3]; 504 h, 21 DAA) [%]	pest or weed control at 560 g/ha ([3]; 504 h, 21 DAA) [%]	pest or weed control at 280 g/ha ([4]; 168 h, 7 DAA) [%]	pest or weed control at 560 g/ha ([4]; 168 h, 7 DAA) [%]	other results
O=C(COc1ccc(Cl)cc1Cl)O/N=C1\CCCc2ccccc21 [Compound A25]	72.5	72.5	65	92.5	75	75	59	62.5	62.7	69.5	59.5	70.1	70	80	62.5	67.5	87.5	82.5	60	72.5	pest or weed control at 280 g/ha ([4]; 336 h, 14 DAA): 83.5%; pest or weed control at 560 g/ha ([4]; 336 h, 14 DAA): 77.5%; pest or weed control at 280 g/ha ([4]; 504 h, 21 DAA): 67.5%; pest or weed control at 560 g/ha ([4]; 504 h, 21 DAA): 99%; pest or weed control at 280 g/ha ([5]; 168 h, 7 DAA): 27.5%; pest or weed control at 560 g/ha ([5]; 168 h, 7 DAA): 30%; pest or weed control at 280 g/ha ([5]; 336 h, 14 DAA): 22.5%; pest or weed control at 560 g/ha ([5]; 336 h, 14 DAA): 27.5%; pest or weed control at 280 g/ha ([5]; 504 h, 21 DAA): 17.5%; pest or weed control at 560 g/ha ([5]; 504 h, 21 DAA): 30%; TGA Data (rate of weight loss, volatility) [6]: 0.8976 µg/min; pest or weed control at 280 g/ha ([7]; 168 h, 7 DAA): 65%; pest or weed control at 560 g/ha ([7]; 168 h, 7 DAA): 57.5%; pest or weed control at 280 g/ha ([7]; 336 h, 14 DAA): 80%; pest or weed control at 560 g/ha ([7]; 336 h, 14 DAA): 82.5%; pest or weed control at 280 g/ha ([7]; 504 h, 21 DAA): 50%; pest or weed control at 560 g/ha ([7]; 504 h, 21 DAA): 64%
C/C(=N\OC(=O)COc1ccc(Cl)cc1Cl)c1ccccc1Cl [Compound A24]	75	77.5	91.5	95	98.5	94.5	74	71.5	87	83.8	89.6	89.8	70	75	75	75	97.5	100	80	75	pest or weed control at 280 g/ha ([4]; 336 h, 14 DAA): 98.5%; pest or weed control at 560 g/ha ([4]; 336 h, 14 DAA): 91.5%; pest or weed control at 280 g/ha ([4]; 504 h, 21 DAA): 94.5%; pest or weed control at 560 g/ha ([4]; 504 h, 21 DAA): 97%; pest or weed control at 280 g/ha ([5]; 168 h, 7 DAA): 62.5%; pest or weed control at 560 g/ha ([5]; 168 h, 7 DAA): 57.5%; pest or weed control at 280 g/ha ([5]; 336 h, 14 DAA): 77.5%; pest or weed control at 560 g/ha ([5]; 336 h, 14 DAA): 67.5%; pest or weed control at 280 g/ha ([5]; 504 h, 21 DAA): 80%; pest or weed control at 560 g/ha ([5]; 504 h, 21 DAA): 85%; TGA Data (rate of weight loss, volatility) [6]: 0.03549 µg/min; pest or weed control at 280 g/ha ([7]; 168 h, 7 DAA): 82.5%; pest or weed control at 560 g/ha ([7]; 168 h, 7 DAA): 72.5%; pest or weed control at 280 g/ha ([7]; 336 h, 14 DAA): 92.5%; pest or weed control at 560 g/ha ([7]; 336 h, 14 DAA): 90%; pest or weed control at 280 g/ha ([7]; 504 h, 21 DAA): 77.5%; pest or weed control at 560 g/ha ([7]; 504 h, 21 DAA): 72.5%
CC(C)CONC(=O)COc1ccc(Cl)cc1Cl [Compound D22]	80	82.5	91.5	99	97.5	97.5	81.5	85.5	93.5	97.3	97	99.3	90	85	90	97.5	100	100	85	85	pest or weed control at 280 g/ha ([4]; 336 h, 14 DAA): 100%; pest or weed control at 560 g/ha ([4]; 336 h, 14 DAA): 99%; pest or weed control at 280 g/ha ([4]; 504 h, 21 DAA): 100%; pest or weed control at 560 g/ha ([4]; 504 h, 21 DAA): 100%; pest or weed control at 280 g/ha ([5]; 168 h, 7 DAA): 72.5%; pest or weed control at 560 g/ha ([5]; 168 h, 7 DAA): 82.5%; pest or weed control at 280 g/ha ([5]; 336 h, 14 DAA): 93.5%; pest or weed control at 560 g/ha ([5]; 336 h, 14 DAA): 98.5%; pest or weed control at 280 g/ha ([5]; 504 h, 21 DAA): 100%; pest or weed control at 560 g/ha ([5]; 504 h, 21 DAA): 99%; TGA Data (rate of weight loss, volatility) [6]: 0.2649 µg/min; pest or weed control at 280 g/ha ([7]; 168 h, 7 DAA): 80%; pest or weed control at 560 g/ha ([7]; 168 h, 7 DAA): 92.5%; pest or weed control at 280 g/ha ([7]; 336 h, 14 DAA): 92.5%; pest or weed control at 560 g/ha ([7]; 336 h, 14 DAA): 92.5%; pest or weed control at 280 g/ha ([7]; 504 h, 21 DAA): 87.5%; pest or weed control at 560 g/ha ([7]; 504 h, 21 DAA): 100%
